Data published in patent US9597407B2, “Targeted antimicrobial moieties” (C3 Jian, Inc., priority 2009, dated 2017).
“Also recorded” adds a separate entry of the source. Ends that are not written are not given here.

Tests used:
bacteria = experiment: Binding of targeting peptides to microorganisms (Table 3); details: preferably 1x PBS; for Target(s) (microorganisms bound by the targeting peptide) / Target(s) (microorganism bound by the targeting peptide): peptide binding in aqueous buffers that varied depending on peptide solubility
microorganisms = experiment: Morphology, biofilm and growth disruption by peptides (Table 5); type: cell-based; set-up: key: A: Peptide aggregates; B: Less hyphal formation; Clumps; Diffuse clumps and small polyps; F: Diffuse growth; H: Thin; I: Growth inhibition; Microcolony formation; Rippled; Small polyps; Thick; W: Halo formation on top, microlonies on bottom
From the text: In certain embodiments peptides that induce alterations in phenotype or other biological activities can also be used as antimicrobial effector moieties.

[1] = microorganism the targeting peptide binds, binding in aqueous buffers that varied with peptide solubility
[2] = microorganism bound by the targeting peptide, binding in aqueous buffers chosen by peptide solubility

In the case of RESKLIAMADMIRRRI-NH2 [PF-545], the “Target(s) (microorganisms bound by the targeting peptide)” value (bacteria) is reported as “S. epidermidis; also recorded: E. coli; also recorded: P. aeruginosa; also recorded: S. pneumoniae; also recorded: E. faecalis; also recorded: C. jeikeium”, the “Organism, effect (morphology, biofilm and growth disruption)” value (microorganisms; B. subtilis) is reported as “B. subtilis (I)” and the “Organism, effect (morphology, biofilm and growth disruption)” value (microorganisms; C. albicans) is reported as “C. albicans (B)”. The “Organism, effect (morphology, biofilm and growth disruption)” value (microorganisms; C. jeikeium) was “C. jeikeium (H)” and the “Organism, effect (morphology, biofilm and growth disruption)” value (microorganisms; E. faecalis) was “E. faecalis (H)”.
In the case of “PF-065 (LEKNTRDNYFIHAIDRIYINTSKGLFPESELVAWG; Peptide with targeting and/or antimicrobial activity)”, the “Target(s)” value (bacteria; [1]) is reported as “M. luteus and E. coli and P. aeruginosa and C. albicans and MRSA and S. pneumoniae and C. jeikeium and C. jejuni”, the “Organism, effect” value (microorganisms; C. jeikeium) is reported as “C. jeikeium (A)” and the “Organism, effect” value (microorganisms; MRSA) is reported as “MRSA (R)”. The “Organism, effect” value (microorganisms; S. epidermidis) was “S. epidermidis (D)”.
For “PF-301 (GIVLIGLKLIPLLANVLN; Peptide with targeting and/or antimicrobial activity)”, the “Target(s)” value (bacteria; [2]) was “C. difficile”, the “Organism, effect” value (microorganisms; B. subtilis) was “B. subtilis (C)” and the “Organism, effect” value (microorganisms; S. epidermidis) was “S. epidermidis (C)”.
“PF-123 (TTRPQVAEDRQLDDALKETFPASDPISP; Peptide with targeting and/or antimicrobial activity)” was tested, and the “Target(s)” value (bacteria; [2]) was “M. luteus; also recorded: E. coli” and the “Organism, effect” value (microorganisms; S. epidermidis) was “S. epidermidis (M)”.
For “PF-186 (DADKNLSLERDRFAWRVAAP; Peptide with targeting and/or antimicrobial activity)”, the “Target(s)” value (bacteria; [2]) was “S. epidermidis and M. luteus and E. coli and P. aeruginosa and MRSA and C. jeikeium”, the “Organism, effect” value (microorganisms; C. jeikeium) was “C. jeikeium (A)” and the “Organism, effect” value (microorganisms; S. epidermidis) was “S. epidermidis (C)”.
“PF-594 (IVSAIV; Peptide with targeting and/or antimicrobial activity)” was tested, and the “Target(s) (microorganisms bound by the targeting peptide)” value (bacteria) was “C. jeikeium” and the “Organism, effect (morphology, biofilm and growth disruption)” value (microorganisms; E. faecalis) was “E. faecalis (C)”.
For “PF-682 (chain 1 RRGKSEQGLSRR; chain 2 RRGKSEQGLSRR; Peptide with targeting and/or antimicrobial activity)”, the “Target(s) (microorganism bound by the targeting peptide)” value (bacteria) was “Mycobacteria spp” and the “Organism, effect (morphology, biofilm and growth disruption)” value (microorganisms; S. pneumoniae) was “S. pneumoniae (A)”.
For “PF-C057 (YFWWYWVQDCIPYKNNEVWLELSNNMK; Peptide with targeting and/or antimicrobial activity)”, the “Target(s) (microorganism bound by the targeting peptide)” value (bacteria) was “A. naeslundii; also recorded: F. nucleatum; also recorded: P. gingivalis; also recorded: S. mutans” and the “Organism, effect (morphology, biofilm and growth disruption)” value (microorganisms; S. mutans) was “S. mutans (I)”.
In the case of NYAVVSHT [PF-209], the “Target(s)” value (bacteria; [2]) is reported as “C. albicans; also recorded: C. jeikeium; also recorded: C. jejuni”, the “Organism, effect” value (microorganisms; MRSA) is reported as “MRSA (I)” and the “Organism, effect” value (microorganisms; P. aeruginosa) is reported as “P. aeruginosa (H)”. The “Organism, effect” value (microorganisms; S. epidermidis) was “S. epidermidis (C)”.
In the case of “PF-588 (ESVEAIKAKAIK; Peptide with targeting and/or antimicrobial activity)”, the “Target(s) (microorganisms bound by the targeting peptide)” value (bacteria) is reported as “S. epidermidis; also recorded: E. coli; also recorded: C. albicans; also recorded: E. faecalis; also recorded: C. jeikeium; also recorded: C. jejuni” and the “Organism, effect (morphology, biofilm and growth disruption)” value (microorganisms; E. faecalis) is reported as “E. faecalis (A)”.
In the case of “PF-426 (MLQKYTQMISVTKCIITKNKKTQENVDAYN; Peptide with targeting and/or antimicrobial activity)”, the “Target(s) (microorganisms bound by the targeting peptide)” value (bacteria) is reported as “S. epidermidis and E. coli and P. aeruginosa and C. albicans and MRSA and S. pneumoniae and E. faecalis and C. jeikeium”, the “Organism, effect (morphology, biofilm and growth disruption)” value (microorganisms; C. albicans) is reported as “C. albicans (A)” and the “Organism, effect (morphology, biofilm and growth disruption)” value (microorganisms; C. jejuni) is reported as “C. jejuni (D)”. For the same substance, the “Organism, effect (morphology, biofilm and growth disruption)” value (microorganisms; E. coli) was “E. coli (C)”, the “Organism, effect (morphology, biofilm and growth disruption)” value (microorganisms; E. faecalis) was “E. faecalis (D)” and the “Organism, effect (morphology, biofilm and growth disruption)” value (microorganisms; MRSA) was “MRSA (D)”. The “Organism, effect (morphology, biofilm and growth disruption)” value (microorganisms; S. epidermidis) was “S. epidermidis (D)” and the “Organism, effect (morphology, biofilm and growth disruption)” value (microorganisms; S. pneumoniae) was “S. pneumoniae (D)”.
For “PF-423 (AGKKERLLSFREQFLNKNKKK; Peptide with targeting and/or antimicrobial activity)”, the “Target(s) (microorganisms bound by the targeting peptide)” value (bacteria) was “S. epidermidis; also recorded: M. luteus; also recorded: E. coli; also recorded: S. pneumoniae; also recorded: E. faecalis; also recorded: C. jeikeium” and the “Organism, effect (morphology, biofilm and growth disruption)” value (microorganisms; S. pneumoniae) was “S. pneumoniae (H)”.
With “PF-C055 (YNLSIYIYFLHTITIAGLITLPFII; Peptide with targeting and/or antimicrobial activity)” the “Target(s) (microorganism bound by the targeting peptide)” value (bacteria) was “A. naeslundii; also recorded: F. nucleatum; also recorded: P. gingivalis; also recorded: S. mutans”, the “Organism, effect (morphology, biofilm and growth disruption)” value (microorganisms; F. nucleatum) was “F. nucleatum (T)” and the “Organism, effect (morphology, biofilm and growth disruption)” value (microorganisms; S. mutans) was “S. mutans (I)”.
“PF-692 (chain 1 GVAREDPLEPDPLAPIIDDSR; chain 2 GVAREDPLEPDPLAPIIDDSR; Peptide with targeting and/or antimicrobial activity)” was tested, and the “Target(s) (microorganism bound by the targeting peptide)” value (bacteria) was “Mycobacteria spp” and the “Organism, effect (morphology, biofilm and growth disruption)” value (microorganisms; MRSA) was “MRSA (R)”.
In the case of “PF-135 (PPARPARIPQTPTLHGASLFRQRS; Peptide with targeting and/or antimicrobial activity)”, the “Target(s)” value (bacteria; [2]) is reported as “S. epidermidis and M. luteus and E. coli and P. aeruginosa and MRSA and C. jeikeium and M. smegmatis” and the “Organism, effect” value (microorganisms; C. jeikeium) is reported as “C. jeikeium (R)”.
In the case of “PF-009 (chain 1 SKKYNHILNQENR; chain 2 SKKYNHILNQENR; Peptide with targeting and/or antimicrobial activity)”, the “Target(s)” value (bacteria; [1]) is reported as “M. luteus; also recorded: P. mirabilis; also recorded: C. albicans” and the “Organism, effect” value (microorganisms; S. epidermidis) is reported as “S. epidermidis (S)”.
In the case of “NTNDLLQAFELMGLGMAGVFIVLGILYIVAELLIKIFPVNN [PF-C194]”, the “Target(s) (microorganism bound by the targeting peptide)” value (bacteria) is reported as “A. naeslundii; also recorded: F. nucleatum; also recorded: P. gingivalis; also recorded: S. mutans; also recorded: T. denticola”, the “Organism, effect (morphology, biofilm and growth disruption)” value (microorganisms; F. nucleatum) is reported as “F. nucleatum (T)” and the “Organism, effect (morphology, biofilm and growth disruption)” value (microorganisms; P. gingivalis) is reported as “P. gingivalis (T)”. For the same substance, the “Organism, effect (morphology, biofilm and growth disruption)” value (microorganisms; S. mutans) was “S. mutans (F)”.
VMQSLYVKPPLILVTKLAQQN [PF-511] was tested, and the “Target(s) (microorganisms bound by the targeting peptide)” value (bacteria) was “E. coli; also recorded: P. aeruginosa; also recorded: S. pneumoniae; also recorded: C. jeikeium” and the “Organism, effect (morphology, biofilm and growth disruption)” value (microorganisms; S. pneumoniae) was “S. pneumoniae (H)”.
With “PF-699 (chain 1 GRAGVKCRRPTGR; chain 2 GRAGVKCRRPTGR; Peptide with targeting and/or antimicrobial activity)” the “Target(s) (microorganism bound by the targeting peptide)” value (bacteria) was “Mycobacteria spp” and the “Organism, effect (morphology, biofilm and growth disruption)” value (microorganisms; S. pneumoniae) was “S. pneumoniae (A)”.
“PF-C181 (KMRAGQVVFIYKLILVLLFYVLQKLFDLKKGCF; Peptide with targeting and/or antimicrobial activity)” was tested, and the “Target(s) (microorganism bound by the targeting peptide)” value (bacteria) was “P. gingivalis” and the “Organism, effect (morphology, biofilm and growth disruption)” value (microorganisms; F. nucleatum) was “F. nucleatum (T)”.
In the case of LHVIRPRPELSELKFPITKILKVNKQGLKK [PF-752], the “Target(s) (microorganism bound by the targeting peptide)” value (bacteria) is reported as “S. epidermidis and E. coli and MRSA and S. pneumoniae and E. faecalis” and the “Organism, effect (morphology, biofilm and growth disruption)” value (microorganisms; S. pneumoniae) is reported as “S. pneumoniae (C)”.
In the case of “PF-668 (chain 1 TNAESMALAFRGRVHMSVNIAGLT; chain 2 TNAESMALAFRGRVHMSVNIAGLT; Peptide with targeting and/or antimicrobial activity)”, the “Target(s) (microorganism bound by the targeting peptide)” value (bacteria) is reported as “Mycobacteria spp”, the “Organism, effect (morphology, biofilm and growth disruption)” value (microorganisms; B. subtilis) is reported as “B. subtilis (A)” and the “Organism, effect (morphology, biofilm and growth disruption)” value (microorganisms; C. albicans) is reported as “C. albicans (A)”. The “Organism, effect (morphology, biofilm and growth disruption)” value (microorganisms; C. jeikeium) was “C. jeikeium (D)”, the “Organism, effect (morphology, biofilm and growth disruption)” value (microorganisms; E. faecalis) was “E. faecalis (D)” and the “Organism, effect (morphology, biofilm and growth disruption)” value (microorganisms; MRSA) was “MRSA (R)”. For the same substance, the “Organism, effect (morphology, biofilm and growth disruption)” value (microorganisms; S. epidermidis) was “S. epidermidis (M)” and the “Organism, effect (morphology, biofilm and growth disruption)” value (microorganisms; S. pneumoniae) was “S. pneumoniae (M)”.
With “PF-680 (chain 1 ADPHPTTGI; chain 2 ADPHPTTGI; Peptide with targeting and/or antimicrobial activity)” the “Target(s) (microorganism bound by the targeting peptide)” value (bacteria) was “Mycobacteria spp” and the “Organism, effect (morphology, biofilm and growth disruption)” value (microorganisms; MRSA) was “MRSA (R)”.
With “PF-643 (chain 1 VRCRL; chain 2 VRCRL; Peptide with targeting and/or antimicrobial activity)” the “Target(s) (microorganism bound by the targeting peptide)” value (bacteria) was “Mycobacteria spp”, the “Organism, effect (morphology, biofilm and growth disruption)” value (microorganisms; E. faecalis) was “E. faecalis (R)” and the “Organism, effect (morphology, biofilm and growth disruption)” value (microorganisms; MRSA) was “MRSA (C)”. The “Organism, effect (morphology, biofilm and growth disruption)” value (microorganisms; S. pneumoniae) was “S. pneumoniae (R)”.
For “PF-653 (chain 1 QSVHPLPAETPVADVI; chain 2 QSVHPLPAETPVADVI; Peptide with targeting and/or antimicrobial activity)”, the “Target(s) (microorganism bound by the targeting peptide)” value (bacteria) was “Mycobacteria spp” and the “Organism, effect (morphology, biofilm and growth disruption)” value (microorganisms; S. pneumoniae) was “S. pneumoniae (H)”.
With “PF-424 (IAAFVTSRAFSDTVSPI; Peptide with targeting and/or antimicrobial activity)” the “Target(s) (microorganisms bound by the targeting peptide)” value (bacteria) was “S. epidermidis and C. albicans and MRSA” and the “Organism, effect (morphology, biofilm and growth disruption)” value (microorganisms; S. pneumoniae) was “S. pneumoniae (H)”.
For “PF-406 (YLEMNADYLSNMDIFDELWEKYLENNK; Peptide with targeting and/or antimicrobial activity)”, the “Target(s) (microorganisms bound by the targeting peptide)” value (bacteria) was “E. coli; also recorded: C. jejuni”, the “Organism, effect” value (microorganisms; MRSA) was “MRSA (M)” and the “Organism, effect” value (microorganisms; S. epidermidis) was “S. epidermidis (C)”.
With “PF-596 (SKMWDKILTILILILELIRELIKL; Peptide with targeting and/or antimicrobial activity)” the “Target(s) (microorganisms bound by the targeting peptide)” value (bacteria) was “S. epidermidis and M. luteus and P. mirabilis and E. coli and P. aeruginosa and MRSA and E. faecalis”, the “Organism, effect (morphology, biofilm and growth disruption)” value (microorganisms; C. jejuni) was “C. jejuni (D)” and the “Organism, effect (morphology, biofilm and growth disruption)” value (microorganisms; E. coli) was “E. coli (C)”. The “Organism, effect (morphology, biofilm and growth disruption)” value (microorganisms; E. faecalis) was “E. faecalis (D)”, the “Organism, effect (morphology, biofilm and growth disruption)” value (microorganisms; MRSA) was “MRSA (D)” and the “Organism, effect (morphology, biofilm and growth disruption)” value (microorganisms; S. epidermidis) was “S. epidermidis (D)”. The “Organism, effect (morphology, biofilm and growth disruption)” value (microorganisms; S. pneumoniae) was “S. pneumoniae (D)”.
For “PF-C071 (QVIVKIL; Peptide with targeting and/or antimicrobial activity)”, the “Target(s) (microorganism bound by the targeting peptide)” value (bacteria) was “A. naeslundii; also recorded: F. nucleatum; also recorded: S. mutans” and the “Organism, effect (morphology, biofilm and growth disruption)” value (microorganisms; F. nucleatum) was “F. nucleatum (T)”.
